Results published in patent publication US12371414B2, “Methods of treating neurological disorders” (NEUMORA THERAPEUTICS, INC., priority 2022, dated 2025).

Tests used:
CK-1δ [1] = biological target: T1, CK-1δ (Homo sapiens, UniProt P48730); assay: Cellular target engagement (NanoBRET) competition assay; format: cell-based; parameters: expressed in transfected cells; host or cells: 293T-HEK cells; details: NanoLuc-tagged kinase in 293T-HEK cells, tracer displacement; read-out: NanoBRET CK-1d IC50
Method: The cell based CK-1δ target engagement assay is a NanoBRET competition assay that directly quantifies compound binding to full length kinases in live cells (Robers M et al. Nat. Comm. No 6 (2015)). The assay utilizes a cell permeable fluorescent tracer that reversibly binds to a NanoLuc-tagged kinase expressed in 293T-HEK cells. Intracellular target engagement of an unmodified test compound was measured by competitive displacement of the tracer resulting in a loss of bioluminescence energy transfer (BRET) that was quantified on a microplate-based luminometer.
(§1) The IC50 ranges are as follows: for NanoBRET IC50 (nM), A denotes <400 nM; B denotes 400 nM≤KD<800 nM; C denotes KD≥800 nM. For the biochemical kinase assay IC50 (nM), A denotes <50 nM; B denotes 50 nM≤IC50<100 nM; C denotes ≥100 nM.

CK-1δ [2] = biological target: T1, CK-1δ; assay: Biochemical kinase assay (HotSpot radioisotope filter binding, Reaction Biology); parameters: purchased Reaction Biology; details: read-out: Biochemical Kinase Assay CK-1d IC50
Method: Biochemical inhibition of CK-1δ and kinome selectivity was assessed using a HotSpot radioisotope filter binding assay (Reaction Biology). In the HotSpot assay, compounds were incubated with the kinase, substrate, cofactors, and radioisotope-labeled ATP. The reaction mixtures are then spotted onto filter papers, which bind the radioisotope-labeled catalytic product that can be quantified.
as §1

T1 sequence (P48730 whole entry): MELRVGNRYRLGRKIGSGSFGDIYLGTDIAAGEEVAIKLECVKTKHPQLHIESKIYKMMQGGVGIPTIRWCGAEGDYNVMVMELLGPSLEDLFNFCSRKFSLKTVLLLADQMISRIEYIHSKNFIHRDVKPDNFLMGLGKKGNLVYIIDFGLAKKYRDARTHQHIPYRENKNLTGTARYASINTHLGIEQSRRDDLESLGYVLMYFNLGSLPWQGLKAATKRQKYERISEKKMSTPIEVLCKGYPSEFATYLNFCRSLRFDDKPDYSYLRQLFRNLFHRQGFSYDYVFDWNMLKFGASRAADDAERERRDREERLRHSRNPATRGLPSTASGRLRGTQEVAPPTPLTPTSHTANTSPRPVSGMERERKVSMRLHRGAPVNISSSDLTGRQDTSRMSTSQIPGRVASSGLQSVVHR

| SMILES | IC50 (CK-1δ [1]) [nM] | IC50 (CK-1δ [2]) [nM] |
| --- | --- | --- |
| CNc1nc(-c2ccncc2)c(-c2ccc(Cl)cc2)c(=O)n1C [Compound 1, 5-(4-chlorophenyl)-3-methyl-2-(methylamino)-6-(pyridin-4-yl)pyrimidin-4(3H)-one] | 400 to 800 | < 50 |
| CC(C)Cc1nc(-c2ccncc2)c(-c2ccc(Cl)cc2)c(=O)[nH]1 [Compound 2, 5-(4-chlorophenyl)-2-isobutyl-6-(pyridin-4-yl)pyrimidin-4(3H)-one] | < 400 | < 50 |
| Cc1cc(-c2nc(CC(C)C)[nH]c(=O)c2-c2ccc(Cl)cc2F)ccn1 [Compound 3, 5-(4-chloro-2-fluorophenyl)-2-isobutyl-6-(2-methylpyridin-4-yl)pyrimidin-4(3H)-one] | < 400 | 50 to 100 |
